“Also recorded” adds a separate entry of the source. No end group written: not given here.
Legend:
[1] = tested on: right sciatic nerve of rats; assay: Sciatic nerve assay (in vivo sciatic nerve injury model); parameters: species or system rat; conditions: Example 2, Table 1, FIG. 1, FIG. 2, comparison with carbamylated EPO
Description: The tissue protective peptides were tested for any tissue protective activity using a Sciatic Nerve Assay. Sprague-Dawley rats (250-300 grams) (six per group, including control) were anesthetized using isoflurane (Baxter NPC 10019-773-60) and a Table Top Laboratory Anesthesia System (flowmeter set to 2-3 liters/minute @55 psi) for at least 3 minutes. The rat was then placed on a homeothermic blanket to ensure that the core temperature of the rat was maintained at 35-37° C. during the operation. Core temperature was monitored via a rectal probe. The right sciatic nerve of the anesthetized rat was exposed at mid thigh through a quadriceps muscle dissection; a 2 cm incision with a 15 blade scalpel was made through the skin parallel and over the quadriceps muscle and the quadriceps muscle was cut to expose the sciatic nerve using a pair of dissecting scissors. The sciatic nerve was then freed from the surrounding membranes. A 2-0 braided silk thread (Ethicon, 685-G) was passed under the nerve and the ends of the suture passed through a guide which was maintained perpendicular to the nerve. The end of the suture was then tied to a non-elastic cord which was then draped around the pulley system (a NYL pulley bearing MTD ¼″ B (PO Number 04174-01) with stabilizer) and a 100 gram weight attached to the non-elastic cord was slowly released. The weight was allowed to hang for 1 minute before the silk suture was cut to release the weight.
A 289 pmol/kg dose of carbamylated erythropoietin, a 289 pmol/kg dose of one peptide from the series A-J (see Table 1), or PBS was then injected into the caudal vein using a ½ cc insulin syringe.
The muscle and surgical incision were then closed and 5 ml of Lactated Ringers solution was injected subcutaneously into the rat. The core temperature of the rat was maintained at 35-37° C. using a heat blanket during recovery.
Over the next four days the rear toe splaying of the rats was determined by placing the rat in an acrylic tube with a diameter of 30 cm on the scanning surface of a digital scanner. […] Three acceptable scans of each rat were taken. From the scans, the Toe Spread (the distance between the ball of the first toe and the ball of the fifth toe) and the Intermediate Toe Spread (the distance between the ball of the second toe and the ball of the fourth toe) were measured. The static sciatic index was then computed in accordance with S. Erbayraktar et al., 2003, Proc Natl Acad Sci USA 100, 6741-6746 (hereby incorporated by reference in its entirety) and statistical analysis performed.

[2] = tested on: experimental autoimmune encephalomyelitis in mice; assay: Murine EAE model; assay type: in vivo, mouse; conditions: C57BL/6 mice; 4.4 μg/kg daily starting day 4 after immunization; p<0.01; FIG. 13
Description: Experimental autoimmune encephalomyelitis ([…]) was induced in C57BL/6 female mice (6-8 weeks of age) according to Savino et al., 2006, J Neuroimmunol 172:27-37, hereby incorporated by reference in its entirety. EAE was induced by subcutaneous immunization in the flanks with a total of 200 μg of MOG35-55 (Multiple Peptide Systems, San Diego, Calif., USA) in incomplete Freund's adjuvant (Sigma. St. Louis, Mo., USA) supplemented with 8 mg/ml of Mycobacterium tuberculosis (strain H37RA; Difco, Detroit, Mich., USA). Animals were housed in specific pathogen-free conditions, allowing access to food and water ad libitum. Mice received 500 ng of pertussin toxin (Sigma) i.v. at the time of immunization and 48 h later. Weight and clinical score were recorded daily (0=healthy, 1=flaccid tail, 2=ataxia, and/or hind-limbs paresis, or slow righting reflex, […] 3=paralysis of hind limb and/or paresis of forelimbs, 4=paraparesis of fore limb, 5=moribund or death). Food pellets and the drinking water were placed on Petri plates on the floor of the cage to enable sick mice to eat and drink. Peptide E (SEQ ID NO:31) was administered daily subcutaneously at a dose of 4.4 micrograms/kg-bw, starting on day 4 after immunization.

[3] = In vivo assessment of erythropoietic activity and neutralizing antibodies; parameters: species or system rat; conditions: rats, 0.8 μg/kg s.c. 3 days/week over 130 days, FIG. 4; for increase in hemoglobin levels (hematocrit): EPO at equimolar dosage
Description: To evaluate the erythropoietic activity of tissue protective peptide F (SEQ ID NO:33) or peptide G (SEQ ID NO:40, as discussed supra a peptide constructed of the presenting residues of Helix B), the peptides were administered 0.8 μg/kg subcutaneously three time per week to male Sprague Dawley rats. The dosage schedule corresponded to the equivalent dose (on a molar basis) of EPO previously determined to be elicit maximum erythropoiesis. Hemoglobin concentration was determined periodically by use of an automated analyzer (Keska Corporation).

mouse P19 cells = assay: P19 cell apoptosis upon withdrawal of serum; assay type: cell-based; conditions: times more potent than EPO, on a weight basis; FIG. 6
Description: Alternatively, tissue protection afforded by peptides can be determined using an assay employing mouse P19 cells, which are neuronal-like and die via apoptosis upon withdrawal of serum. Tissue protection of peptide D (SEQ ID NO:30) was compared to that of EPO using P19 clone P19S1801A1 as previously published (Siren et al., 2001, PNAS 98:4044, hereby incorporated by reference in its entirety). Cells were maintained undifferentiated in DMEM supplemented with 2 mM Lglutamine; 100 units/ml penicillin G; […] streptomycin sulfate (GIBCO); 10% (vol/vol) FBS (HyClone), containing 1.2 g/liter NaHCO3 and 10 mM Hepes buffer, hereafter referred to as complete medium. Serum-free medium contained the same components as above with the deletion of serum and the addition of 5 mg/ml of insulin; […] of transferrin; 20 nM progesterone; […] putrescine; 30 nM Na2SeO3 (from Sigma). For the experiments, 50% confluent cells were pretreated overnight with EPO or vehicle, dissociated with trypsin, washed in serum-free medium, and plated in 25-cm^2 tissue culture flasks at a final density of 10^4 cells/cm^2 in serum-free medium alone or with added EPO. Cell viability and was determined by trypan blue exclusion and a hemacytometer.

Sequence: APPRLICDSRVLERYLLEAKEAE (Peptide A - consists of the N-terminal portion of Helix A corresponding to EPO amino acids 1-23) [EPO fragment, amino acids 1-23]
- tissue protective activity in the sciatic nerve injury model (in words) [1]: is tissue protective

Sequence: CSLNENIQEQLERALNSS (Peptide I - A chimera peptide linking the helix B exterior-presenting amino acids to the beta pleated sheet found within the AB loop of the EPO) [chimera: Peptide G + β-pleated sheet (33-39)]
- tissue protective activity in the sciatic nerve injury model (in words) [1]: is tissue protective

Sequence: GCAEHCSLNENITVPDTKVN (Peptide E - a portion of the A-B loop consisting of a small cysteine loop and a Beta-pleated sheet corresponding to EPO amino acids 28-47) [EPO fragment, amino acids 28-47]
- tissue protective activity in the sciatic nerve injury model (in words) [1]: is tissue protective
- tissue protective activity in the sciatic nerve injury model (in words) ([1]; listed as SEQ ID NO:31): exhibit tissue protective properties
- clinical score / neurological function in EAE [2]: significantly reduced both the time course and severity; also recorded: significantly improved neurological function

Sequence: NITTGCAEHCSLNE (Peptide B - consists of EPO amino acids 24-37) [EPO fragment, amino acids 24-37]
- tissue protective activity in the sciatic nerve injury model (in words) [1]: is not tissue protective
- increase in hemoglobin levels (hematocrit) [3]: Neither Peptide B nor Peptide C showed any increase in hematocrit

Sequence: NITVPDTKVNFYAWKRMEVG (Peptide C - loop AB and N-terminal portion of helix B corresponding to EPO amino acids 38-57) [EPO fragment, amino acids 38-57]
- potency relative to EPO in preventing apoptosis of p19 cells (mouse P19 cells): at least 10
- tissue protective activity in the sciatic nerve injury model (in words) [1]: exhibit tissue protective properties
- increase in hemoglobin levels (hematocrit) [3]: Neither Peptide B nor Peptide C showed any increase in hematocrit

Sequence: QEQLERALNSS [Peptide G, QEQLERALNSS]
- neutralizing antibody response against EPO [3]: no neutralizing antibody response was observed; also recorded: neither peptide elicits an antibody response

Sequence: QEQLERALNSSLRRYINMLTRTR (Peptide J - A chimera peptide of Peptide G linked to pancreatic polypeptide helix)
- tissue protective activity in the sciatic nerve injury model (in words) [1]: potent tissue protective activity

Sequence: RYLLEAKEAENITTGC [Peptide F, RYLLEAKEAENITTGC]
- neutralizing antibody response against EPO [3]: no neutralizing antibody response was observed; also recorded: neither peptide elicits an antibody response

Reference: US10100096B2, “Tissue protective peptides and uses thereof” (Araim Pharmaceuticals, Inc., priority 2005, dated 2018)
